# Legend:
# Type in all cases: biochemical
# [1] = molecular target: T1, full-length human PHD1 (Homo sapiens, UniProt Q96KS0); test: TR-FRET assay for PHD enzymes, PHD1
# T1 construct: FLAG (N); purchased Active Motif (Carlsbad, Calif., USA) 81064; host or cells: baculovirus expression system
# Excerpt: (§1) The resulting proximity of the donor fluorophore complex, monoclonal antibody anti-6His-Terbium (Tb)-cryptate Gold, bound to the His-tagged VHL protein, EloB, EloC complex (His-VBC) and the acceptor fluorophore, SA-D2 complex, bound to HIF-1α-hydroxyproline results in a fluorescence resonance energy transfer signal that can be detected and quantified
# Recombinant human PHD1 protein (catalog #81064, Lot #24717001) was purchased from Active Motif (Carlsbad, Calif., USA). PHD1 was expressed in a baculovirus expression system as the full-length protein (NCBI accession number NP_542770.2) with an N-terminal FLAG tag (molecular weight 44.9 kDa). Purity (>90%) was assessed by SDS-PAGE.
# (§2) For this, 5 μL PHD inhibitor compound was serially diluted with dilution buffer (50 mM HEPES [4-(2-hydroxyethyl)-1-piperazineethanesulfonic acid] pH 7.5, 50 mM sodium chloride [NaCl], 0.01% Tween-20, 0.01% purified bovine serum albumin [BSA]) and mixed with 5 μL PHD enzyme mix prepared as a 4× concentrate in the dilution buffer containing PHD enzyme (60 nM PHD1, 20 nM PHD2, 140 nM PHD3), 40 μM ferrous ammonium sulfate (FAS), 4 mM sodium (Na) ascorbate.
# (§3) The IC50 values (mean, standard deviation, standard error of the mean, geometric mean and 95% confidence interval) were determined using a four-parameter curve-fit using GraphPad Prism 7.0 (GraphPad, La Jolla, Calif., USA) and represent the compound concentration plotted against the calculated ratio of 665 nm and 615 nm.
# [2] = molecular target: T2, full-length human PHD2 (Homo sapiens, UniProt Q9GZT9); test: TR-FRET assay for PHD enzymes, PHD2; details: read-out: PHD2 IC5 0
# T2 construct: The PHD2 construct contained amino acids 1 to 426 of PHD2; His tag (N, cleaved yes); TEV protease cleavage site (N, cleaved yes); host or cells: Sf9 insect cells (baculovirus)
# Experimental: as §1, §2, §3
# [3] = molecular target: T3, full-length human PHD3 (Homo sapiens, UniProt Q9H6Z9); test: TR-FRET assay for PHD enzymes, PHD3
# T3 construct: 6-His (N); purchased Active Motif (Carlsbad, Calif., USA) 81033; host or cells: E. coli
# Excerpt: as §1
# Recombinant human PHD3 protein (molecular weight 31.1 kDa) was purchased from Active Motif (Carlsbad, Calif., USA). It was expressed in E. coli as the full-length protein (NCBI accession number NP_071356.1) with an N-terminal 6-His tag (catalog #81033, Lot #24417001).
# as §2, §3
# T3 sequence (Q9H6Z9 whole entry): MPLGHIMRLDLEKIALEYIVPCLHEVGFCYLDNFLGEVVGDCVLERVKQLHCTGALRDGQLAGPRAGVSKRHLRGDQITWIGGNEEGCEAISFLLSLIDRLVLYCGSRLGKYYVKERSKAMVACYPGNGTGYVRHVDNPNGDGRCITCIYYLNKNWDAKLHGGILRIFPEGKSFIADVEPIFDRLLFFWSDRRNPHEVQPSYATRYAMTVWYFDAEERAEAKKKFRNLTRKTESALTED
# T1 sequence (Q96KS0 whole entry): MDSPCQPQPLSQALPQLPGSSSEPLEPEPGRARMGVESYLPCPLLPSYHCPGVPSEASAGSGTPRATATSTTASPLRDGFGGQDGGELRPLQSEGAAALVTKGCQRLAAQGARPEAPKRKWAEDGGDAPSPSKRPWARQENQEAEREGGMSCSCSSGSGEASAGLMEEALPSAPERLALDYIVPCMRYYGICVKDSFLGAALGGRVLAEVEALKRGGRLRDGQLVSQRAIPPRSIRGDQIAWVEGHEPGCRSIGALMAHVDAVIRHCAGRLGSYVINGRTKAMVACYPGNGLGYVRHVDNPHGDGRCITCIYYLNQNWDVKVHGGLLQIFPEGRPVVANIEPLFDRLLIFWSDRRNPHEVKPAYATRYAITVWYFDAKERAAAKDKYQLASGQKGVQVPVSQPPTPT
# T2 sequence (Q9GZT9 whole entry, the tested form may be a part): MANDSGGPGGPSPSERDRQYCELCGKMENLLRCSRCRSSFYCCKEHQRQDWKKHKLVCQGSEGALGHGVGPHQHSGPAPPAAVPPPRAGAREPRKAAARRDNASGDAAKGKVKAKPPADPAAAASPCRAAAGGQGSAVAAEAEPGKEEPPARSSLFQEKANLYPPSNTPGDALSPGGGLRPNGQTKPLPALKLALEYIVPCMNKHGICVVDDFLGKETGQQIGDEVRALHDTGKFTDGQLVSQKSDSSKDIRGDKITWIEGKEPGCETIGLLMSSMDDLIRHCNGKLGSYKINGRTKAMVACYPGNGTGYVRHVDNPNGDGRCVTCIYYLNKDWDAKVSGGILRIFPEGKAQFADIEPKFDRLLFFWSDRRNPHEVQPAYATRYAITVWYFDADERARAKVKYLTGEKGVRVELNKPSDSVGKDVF
compound,measurement,setting,value
"O=C(O)c1ccc(-n2ncc(-c3ccc(Cl)nc3)c2O)nc1 [Compound 17, 6-(4-(6-chloropyridin-3-yl)-5-hydroxy-1H-pyrazol-1-yl)nicotinic acid]",IC50,[1],< 100 nM
same,IC50,[2],< 100 nM
same,IC50,[3],< 100 nM
"Cc1cc(-n2nc(C)c(-c3ccc(C#N)cc3)c2O)ncc1C(=O)O [Compound 18, 6-(4-(4-cyanophenyl)-5-hydroxy-3-methyl-1H-pyrazol-1-yl)-4-methylnicotinic acid]",IC50,[1],< 100 nM
same,IC50,[2],< 100 nM
same,IC50,[3],< 100 nM
"N#Cc1ccc(-c2cnn(-c3ccc(C(=O)O)cn3)c2O)c(O)c1 [Compound 21, 6-(4-(4-cyano-2-hydroxyphenyl)-5-hydroxy-1H-pyrazol-1-yl)nicotinic acid]",IC50,[1],< 100 nM
same,IC50,[2],< 100 nM
same,IC50,[3],100 to 1000 nM
"Cc1cc(C#N)ccc1-c1c(C)nn(-c2ccc(C(=O)O)cn2)c1O [Compound 24, 6-(4-(4-cyano-2-methylphenyl)-5-hydroxy-3-methyl-1H-pyrazol-1-yl)nicotinic acid]",IC50,[1],< 100 nM
same,IC50,[2],< 100 nM
same,IC50,[3],< 100 nM
"Cc1nn(-c2ccc(C(=O)O)cn2)c(O)c1-c1ccc(Cl)c(F)c1 [Compound 26, 6-(4-(4-chloro-3-fluorophenyl)-5-hydroxy-3-methyl-1H-pyrazol-1-yl)nicotinic acid]",IC50,[1],< 100 nM
same,IC50,[2],< 100 nM
same,IC50,[3],100 to 1000 nM
"Cc1nn(-c2ccc(C(=O)O)cn2)c(O)c1-c1ccc(Cl)cc1F [Compound 28, 6-(4-(4-chloro-2-fluorophenyl)-5-hydroxy-3-methyl-1H-pyrazol-1-yl)nicotinic acid]",IC50,[1],< 100 nM
same,IC50,[2],100 to 1000 nM
same,IC50,[3],100 to 1000 nM
"COc1cc(-c2cnn(-c3ccc(C(=O)OC(C)(C)C)cn3)c2O)ccn1 [Compound 35, Tert-butyl 6-(5-hydroxy-4-(2-methoxypyridin-4-yl)-1H-pyrazol-1-yl)nicotinate]",IC50,[1],< 100 nM
same,IC50,[2],< 100 nM
same,IC50,[3],< 100 nM
"CCOC(=O)c1ccc(-n2ncc(-c3ccc(C#N)cc3)c2O)nc1 [Compound 36, Ethyl 6-(4-(4-cyanophenyl)-5-hydroxy-1H-pyrazol-1-yl)nicotinate]",IC50,[1],< 100 nM
same,IC50,[2],< 100 nM
same,IC50,[3],< 100 nM
"CC(C)OC(=O)c1ccc(-n2ncc(-c3ccc(C#N)cc3)c2O)nc1 [Compound 37, Isopropyl 6-(4-(4-cyanophenyl)-5-hydroxy-1H-pyrazol-1-yl)nicotinate]",IC50,[1],< 100 nM
same,IC50,[2],< 100 nM
same,IC50,[3],< 100 nM
"CC(C)(C)OC(=O)c1ccc(-n2ncc(-c3ccc(C#N)cc3)c2O)nc1 [Compound 38, Tert-butyl 6-(4-(4-cyanophenyl)-5-hydroxy-1H-pyrazol-1-yl)nicotinate]",IC50,[1],< 100 nM
same,IC50,[2],< 100 nM
same,IC50,[3],1000 to 10000 nM
"O=C(O)c1ccc(-n2ncc(-c3ccc(Cl)cc3O)c2O)nc1 [Compound 39, 6-(4-(4-chloro-2-hydroxyphenyl)-5-hydroxy-1H-pyrazol-1-yl)nicotinic acid]",IC50,[1],100 to 1000 nM
same,IC50,[2],< 100 nM
same,IC50,[3],1000 to 10000 nM
